The results in this text go back to patent publication US12398097B2, “WDR5-MYC inhibitors” (Vanderbilt University, priority 2019, dated 2025).

The assay has as its target WDR5 (Homo sapiens, UniProt P61964). Kind of assay: Competition-based fluorescence polarization anisotropy assay. The note with it: binding to WDR5; displacement of FITC-labeled small molecule probe (analogous to Example J2 or HCH-25) or peptide probe FITC-AHx-SEEEIDVVSV; pH 6.0; Ki converted from IC50. The method in brief: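 Competition fluorescence polarization anisotropy binding to WDR5 using a FITC-labeled peptide probe or a fluorescently labeled small-molecule probe. Buffer: 200 mM phosphate, 300 mM NaCl, 0.5 mM TCEP, 0.1% Chaps, pH 6.0. Displacement data were converted to Ki.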
On the technique in general: Fluorescence polarisation rises when a labelled molecule tumbles more slowly, as on binding a larger partner.
Molecule `O=C(NCC(O)c1ccsc1)c1cc(OC(F)(F)F)cc(NS(=O)(=O)c2cc(Br)ccc2O)c1O` (stereo not shown) [HCH-43, 3-((5-Bromo-2-hydroxyphenyl)sulfonamido)-2-hydroxy-N-(2-hydroxy-2-(thiophen-3-yl)ethyl)-5-(trifluoromethoxy)benzamide] registered a Ki of 430 nM.

Take `COCCNC(=O)c1c(O)c(NS(=O)(=O)c2cc(Br)ccc2O)cc(C2CC2)c1F` [Example J127, 3-((5-Bromo-2-hydroxyphenyl)sulfonamido)-5-cyclopropyl-6-fluoro-2-hydroxy-N-(2-methoxyethyl)benzamide]: the Ki worked out at 1970 nM. In the case of `O=C(O)c1cc(Cl)cc(NS(=O)(=O)c2cc(Br)ccc2O)c1` [Example J66, 3-((5-Bromo-2-hydroxyphenyl)sulfonamido)-5-chlorobenzoic acid] it was 3510 nM; in that of `COC1CN(C(=O)c2cc(C3(C#N)CCC3)cc(NS(=O)(=O)c3cc(Br)ccc3O)c2O)C1` [Example J223, 5-Bromo-N-(5-(1-cyanocyclobutyl)-2-hydroxy-3-(3-methoxyazetidine-1-carbonyl)phenyl)-2-hydroxybenzenesulfonamide], 430 nM; in that of `CNC(=O)c1cc(C2(C#N)CCC2)cc(NS(=O)(=O)c2cc(Br)ccc2OC)c1O` [Example J210, 3-((5-Bromo-2-methoxyphenyl)sulfonamido)-5-(1-cyanocyclobutyl)-2-hydroxy-N-methylbenzamide], 390 nM. Next, `COc1ccc(Br)cc1S(=O)(=O)Nc1cc(Cl)cc(C(=O)NC2CCOC2)c1O` (stereo not shown) [Example J60, 3-((5-Bromo-2-methoxyphenyl)sulfonamido)-5-chloro-2-hydroxy-N-(tetrahydrofuran-3-yl)benzamide]: 940 nM; `O=C(NC[C@@H]1CCCO1)c1cc(Cl)cc(NS(=O)(=O)c2cc(Br)ccc2O)c1O` [Example J27, (S)-3-((5-Bromo-2-hydroxyphenyl)sulfonamido)-5-chloro-2-hydroxy-N-((tetrahydrofuran-2-yl)methyl)benzamide]: 780 nM. `COCCNC(=O)c1cc(C2CC2)cc(NS(=O)(=O)c2cc(Br)ccc2O)c1F` [Example J142, 3-((5-Bromo-2-hydroxyphenyl)sulfonamido)-5-cyclopropyl-2-fluoro-N-(2-methoxyethyl)benzamide] returned a Ki of 1480 nM. In the case of `COCCNC(=O)c1cc(C2(C#N)CCC2)cc(NS(=O)(=O)c2cc(Br)ccc2O)c1O` [Example J219, 3-((5-Bromo-2-hydroxyphenyl)sulfonamido)-5-(1-cyanocyclobutyl)-2-hydroxy-N-(2-methoxyethyl)benzamide] it was 440 nM.

In turn, `CC(C)C(O)CNC(=O)c1cc(OC(F)(F)F)cc(NS(=O)(=O)c2cc(Br)cc(Cl)c2O)c1O` (stereo not shown) [HCH-52, 3-((5-Bromo-3-chloro-2-hydroxyphenyl)sulfonamido)-2-hydroxy-N-(2-hydroxy-3-methylbutyl)-5-(trifluoromethoxy)benzamide] came in with a Ki of 140 nM. Next, `NC(=O)[C@H](CO)NC(=O)c1cc(OC(F)(F)F)cc(NS(=O)(=O)c2cc(Br)cc(Cl)c2O)c1O` [HCH-56, (S)—N-(1-Amino-3-hydroxy-1-oxopropan-2-yl)-3-((5-bromo-3-chloro-2-hydroxyphenyl)sulfonamido)-2-hydroxy-5-(trifluoromethoxy)benzamide]: 190 nM. In the case of `O=C(Nc1nc[nH]n1)c1cc(NS(=O)(=O)c2cc(Br)cc(Cl)c2O)cc(C2CC2)c1F` [Example J154, 5-((5-Bromo-3-chloro-2-hydroxyphenyl)sulfonamido)-3-cyclopropyl-2-fluoro-N-(1H-1,2,4-triazol-3-yl)benzamide], the affinity corresponds to a Ki of 130 nM. In the case of `CS(=O)(=O)c1cc(S(F)(F)(F)(F)F)cc(NS(=O)(=O)c2ccc(Br)cc2O)c1O` [Example S20, 4-Bromo-2-hydroxy-N-(2-hydroxy-3-(methylsulfonyl)-5-(pentafluoro-λ6-sulfaneyl)phenyl)benzenesulfonamide] it was 4300 nM; in that of `COc1ccc(Br)cc1S(=O)(=O)Nc1cc(C2(C#N)CCC2)cc(S(C)(=O)=O)c1O` [Example S59, 5-Bromo-N-(5-(1-cyanocyclobutyl)-2-hydroxy-3-(methylsulfonyl)phenyl)-2-methoxybenzenesulfonamide], 310 nM; in that of `CCC(O)CNC(=O)c1cc(OC(F)(F)F)cc(NS(=O)(=O)c2cc(Br)cc(F)c2O)c1O` (stereo not shown) [HCH-39, 3-((5-Bromo-3-fluoro-2-hydroxyphenyl)sulfonamido)-2-hydroxy-N-(2-hydroxybutyl)-5-(trifluoromethoxy)benzamide], 320 nM. Next, `COc1ccc(Br)cc1S(=O)(=O)Nc1cc(Cl)cc(C(=O)NCCCO)c1O` [Example J53, 3-((5-Bromo-2-methoxyphenyl)sulfonamido)-5-chloro-2-hydroxy-N-(3-hydroxypropyl)benzamide]: 2070 nM; `O=C(O)c1c(O)c(NS(=O)(=O)c2cc(Br)cc(Cl)c2O)cc(C2CC2)c1F` [Example J118, 3-((5-Bromo-3-chloro-2-hydroxyphenyl)sulfonamido)-5-cyclopropyl-6-fluoro-2-hydroxybenzoic acid]: 350 nM. Regarding `O=C(NCC1CCCO1)c1cc(OC(F)(F)F)cc(NS(=O)(=O)c2cc(Br)ccc2O)c1O` (stereo not shown) [Example J165, 3-((5-Bromo-2-hydroxyphenyl)sulfonamido)-2-hydroxy-N-((tetrahydrofuran-2-yl)methyl)-5-(trifluoromethoxy)benzamide], the Ki stood at 420 nM.

The molecule `O=C(NCC1CCCO1)c1cc(Cl)cc(NS(=O)(=O)c2cc(Br)ccc2O)c1O` (stereo not shown) [Example J25, 3-((5-Bromo-2-hydroxyphenyl)sulfonamido)-5-chloro-2-hydroxy-N-((tetrahydrofuran-2-yl)methyl)benzamide] yielded a Ki of 230 nM. In the case of `O=C(NCCO)c1cc(OC(F)(F)F)cc(NS(=O)(=O)c2cc(Br)ccc2O)c1O` [HCH-26, 3-((5-Bromo-2-hydroxyphenyl)sulfonamido)-2-hydroxy-N-(2-hydroxyethyl)-5-(trifluoromethoxy)benzamide] it was 250 nM.

`O=C(NCCO)c1cc(Cl)cc(NS(=O)(=O)c2cc(Br)cc(Cl)c2O)c1O` [Example J41, 3-((5-Bromo-3-chloro-2-hydroxyphenyl)sulfonamido)-5-chloro-2-hydroxy-N-(2-hydroxyethyl)benzamide] had a Ki of 2480 nM.

For `COc1ccc(Br)cc1S(=O)(=O)Nc1cc(Cl)cc(S(C)(=O)=O)c1O` [Example S49, 5-Bromo-N-(5-chloro-2-hydroxy-3-(methylsulfonyl)phenyl)-2-methoxybenzenesulfonamide], affinity was put at a Ki of 290 nM. For the molecule `CCc1cc(NS(=O)(=O)c2cc(Br)cc(CC)c2O)c(O)c(C(=O)O)c1` [HCH-12, 3-((5-bromo-3-ethyl-2-hydroxyphenyl)sulfonamido)-5-ethyl-2-hydroxybenzoic acid], affinity was put at a Ki of 200 nM. Next, `COc1cc(F)c(Br)cc1S(=O)(=O)Nc1cc(Cl)cc(C(=O)O)c1O` [Example J8, 3-((5-Bromo-4-fluoro-2-methoxyphenyl)sulfonamido)-5-chloro-2-hydroxybenzoic acid]: 2770 nM; `CN(C)CCCS(=O)(=O)c1cc(Cl)cc(NS(=O)(=O)c2cc(Br)cc(Cl)c2O)c1` [Example S51, 5-Bromo-3-chloro-N-(3-chloro-5-((3-(dimethylamino)propyl)sulfonyl)phenyl)-2-hydroxybenzenesulfonamide]: 1450 nM.

By Ki is commonly meant a dissociation constant, usually derived from enzyme kinetics or from competition with a known ligand. Lower therefore signals a stronger hold on the target.
